Reference: ChEMBL document CHEMBL3232804, “Synthesis and evaluation of new diaryl ether and quinoline hybrids as potential antiplasmodial and antimicrobial agents” (Bioorg Med Chem Lett, 2014)
In brackets after ≈: the same amount, converted by molar mass.

Assays:
[1] = Selectivity index, ratio of IC50 for african green monkey Vero cells to IC50 for chloroquine-sensitive Plasmodium falciparum 3D7; type: toxicity, cell-based; conditions: read-out: Ratio IC50
Sporothrix schenckii = assay: Antifungal activity against Sporothrix schenckii clinical isolate after 72 to 96 hrs by standard broth microdilution method; type: functional
Candida albicans = assay: Antifungal activity against Candida albicans clinical isolate after 24 to 48 hrs by standard broth microdilution method; type: functional
Cryptococcus neoformans = assay: Antifungal activity against Cryptococcus neoformans clinical isolate after 24 to 48 hrs by standard broth microdilution method; type: functional
Pseudomonas aeruginosa = assay: Antimicrobial activity against Pseudomonas aeruginosa ATCC BAA-427 after 24 hrs by standard broth microdilution method; type: functional; conditions: ATCC BAA-427, 24 h
Staphylococcus aureus = assay: Antimicrobial activity against Staphylococcus aureus ATCC 25923 after 24 hrs by standard broth microdilution method; type: functional; conditions: ATCC 25923, 24 h
[2] = tested on: Trichophyton mentagrophytes; assay: Antifungal activity against Trichophyton mentagrophytes clinical isolate after 72 to 96 hrs by standard broth microdilution method; type: functional
Candida parapsilosis = assay: Antifungal activity against Candida parapsilosis ATCC […] after 72 to 96 hrs by standard broth microdilution method; type: functional; conditions: Lodderomyces parapsilosis
Plasmodium falciparum [3] = assay: Antiplasmodial activity against chloroquine-resistant Plasmodium falciparum K1 infected after 72 hrs by Malaria SYBR Green I-staining based fluorescence assay; type: functional, organism-based; conditions: K1, 72 h
Aspergillus fumigatus = assay: Antifungal activity against Aspergillus fumigatus clinical isolate after 72 to 96 hrs by standard broth microdilution method; type: functional
Klebsiella pneumoniae = assay: Antimicrobial activity against Klebsiella pneumoniae ATCC 27736 after 24 hrs by standard broth microdilution method; type: functional; conditions: ATCC 27736, 24 h
Escherichia coli = assay: Antimicrobial activity against Escherichia coli ATCC 9637 after 24 hrs by standard broth microdilution method; type: functional; conditions: ATCC 9637, 24 h
Plasmodium falciparum [4] = assay: Antiplasmodial activity against chloroquine-sensitive Plasmodium falciparum 3D7 infected after 72 hrs by Malaria SYBR Green I-staining based fluorescence assay; type: functional, organism-based; conditions: 3D7, 72 h

COC(=O)/C(C)=C/c1ccc(Oc2ccc(N/C(=N/c3ccccc3)NCCNc3ccnc4cc(Cl)ccc34)cc2)cc1
selectivity ratio [1]: 158 | MIC (Sporothrix schenckii): 12.5 µg/mL (≈ 20.6 µM) | MIC (Candida albicans): 1.52 µg/mL (≈ 2.51 µM) | MIC (Cryptococcus neoformans): 12.5 µg/mL (≈ 20.6 µM) | MIC (Pseudomonas aeruginosa): > 50 µg/mL | MIC (Staphylococcus aureus): 25 µg/mL (≈ 41.2 µM) | MIC [2]: 6.25 µg/mL (≈ 10.3 µM) | MIC (Candida parapsilosis): 12.5 µg/mL (≈ 20.6 µM) | IC50 (Plasmodium falciparum [3]): 65.9 nM | MIC (Aspergillus fumigatus): 25 µg/mL (≈ 41.2 µM) | MIC (Klebsiella pneumoniae): > 50 µg/mL | MIC (Escherichia coli): 12.5 µg/mL (≈ 20.6 µM) | IC50 (Plasmodium falciparum [4]): 70.3 nM

COC(=O)/C(C)=C/c1ccc(Oc2ccc(N/C(=N/c3ccc(Cl)cc3)NCCNc3ccnc4cc(Cl)ccc34)cc2)cc1
selectivity ratio [1]: 69.2 | MIC (Sporothrix schenckii): 6.25 µg/mL (≈ 9.76 µM) | MIC (Candida albicans): 6.25 µg/mL (≈ 9.76 µM) | MIC (Cryptococcus neoformans): 6.25 µg/mL (≈ 9.76 µM) | MIC (Pseudomonas aeruginosa): > 50 µg/mL | MIC (Staphylococcus aureus): 6.25 µg/mL (≈ 9.76 µM) | MIC [2]: 12.5 µg/mL (≈ 19.5 µM) | MIC (Candida parapsilosis): 25 µg/mL (≈ 39 µM) | IC50 (Plasmodium falciparum [3]): > 800 nM | MIC (Aspergillus fumigatus): 25 µg/mL (≈ 39 µM) | MIC (Klebsiella pneumoniae): 50 µg/mL (≈ 78.1 µM) | MIC (Escherichia coli): 12.5 µg/mL (≈ 19.5 µM) | IC50 (Plasmodium falciparum [4]): 43.1 nM

COC(=O)/C(C)=C/c1ccc(Oc2ccc(N/C(=N/c3cccc(Cl)c3)NCCNc3ccnc4cc(Cl)ccc34)cc2)cc1
selectivity ratio [1]: 71.7 | MIC (Sporothrix schenckii): 25 µg/mL (≈ 39 µM) | MIC (Candida albicans): 50 µg/mL (≈ 78.1 µM) | MIC (Cryptococcus neoformans): 50 µg/mL (≈ 78.1 µM) | MIC (Pseudomonas aeruginosa): 50 µg/mL (≈ 78.1 µM) | MIC (Staphylococcus aureus): 6.25 µg/mL (≈ 9.76 µM) | MIC [2]: 25 µg/mL (≈ 39 µM) | MIC (Candida parapsilosis): 50 µg/mL (≈ 78.1 µM) | IC50 (Plasmodium falciparum [3]): 123 nM | MIC (Aspergillus fumigatus): > 50 µg/mL | MIC (Klebsiella pneumoniae): 12.5 µg/mL (≈ 19.5 µM) | MIC (Escherichia coli): 12.5 µg/mL (≈ 19.5 µM) | IC50 (Plasmodium falciparum [4]): 48.9 nM

Clc1ccc(Cl)c(Oc2ccc(N/C(=N/c3ccccc3)NCCCNc3ccnc4cc(Cl)ccc34)cc2)c1
selectivity ratio [1]: 164 | MIC (Sporothrix schenckii): 3.12 µg/mL (≈ 5.28 µM) | MIC (Candida albicans): 12.5 µg/mL (≈ 21.2 µM) | MIC (Cryptococcus neoformans): 6.25 µg/mL (≈ 10.6 µM) | MIC (Pseudomonas aeruginosa): > 50 µg/mL | MIC (Staphylococcus aureus): 12.5 µg/mL (≈ 21.2 µM) | MIC [2]: 6.25 µg/mL (≈ 10.6 µM) | MIC (Candida parapsilosis): 6.25 µg/mL (≈ 10.6 µM) | IC50 (Plasmodium falciparum [3]): > 846 nM | MIC (Aspergillus fumigatus): 6.25 µg/mL (≈ 10.6 µM) | MIC (Klebsiella pneumoniae): 25 µg/mL (≈ 42.3 µM) | MIC (Escherichia coli): 3.12 µg/mL (≈ 5.28 µM) | IC50 (Plasmodium falciparum [4]): 23.1 nM

COc1ccc(Oc2ccccc2N/C(=N/c2cccc(Cl)c2)NCCCCNc2ccnc3cc(Cl)ccc23)cc1
selectivity ratio [1]: 176 | MIC (Sporothrix schenckii): 12.5 µg/mL (≈ 20.8 µM) | MIC (Candida albicans): 12.5 µg/mL (≈ 20.8 µM) | MIC (Cryptococcus neoformans): 50 µg/mL (≈ 83.3 µM) | MIC (Pseudomonas aeruginosa): > 50 µg/mL | MIC (Staphylococcus aureus): 3.12 µg/mL (≈ 5.2 µM) | MIC [2]: 12.5 µg/mL (≈ 20.8 µM) | MIC (Candida parapsilosis): 50 µg/mL (≈ 83.3 µM) | IC50 (Plasmodium falciparum [3]): > 1000 nM | MIC (Aspergillus fumigatus): > 50 µg/mL | MIC (Klebsiella pneumoniae): 50 µg/mL (≈ 83.3 µM) | MIC (Escherichia coli): 12.5 µg/mL (≈ 20.8 µM) | IC50 (Plasmodium falciparum [4]): 37.6 nM

COC(=O)/C(C)=C/c1ccc(Oc2ccccc2N/C(=N/c2ccc(Cl)cc2)NCCNc2ccnc3cc(Cl)ccc23)cc1
selectivity ratio [1]: 46.2 | MIC (Sporothrix schenckii): 50 µg/mL (≈ 78.1 µM) | MIC (Candida albicans): 50 µg/mL (≈ 78.1 µM) | MIC (Cryptococcus neoformans): 50 µg/mL (≈ 78.1 µM) | MIC (Pseudomonas aeruginosa): > 50 µg/mL | MIC (Staphylococcus aureus): 1.56 µg/mL (≈ 2.44 µM) | MIC [2]: 50 µg/mL (≈ 78.1 µM) | MIC (Candida parapsilosis): > 50 µg/mL | IC50 (Plasmodium falciparum [3]): 419 nM | MIC (Aspergillus fumigatus): > 50 µg/mL | MIC (Klebsiella pneumoniae): > 50 µg/mL | MIC (Escherichia coli): 50 µg/mL (≈ 78.1 µM) | IC50 (Plasmodium falciparum [4]): 51.5 nM

COc1ccc(Oc2ccccc2N/C(=N/c2cccc(Cl)c2)NCCNc2ccnc3cc(Cl)ccc23)cc1
selectivity ratio [1]: 208 | MIC (Sporothrix schenckii): > 50 µg/mL | MIC (Candida albicans): 6.25 µg/mL (≈ 10.9 µM) | MIC (Cryptococcus neoformans): 12.5 µg/mL (≈ 21.8 µM) | MIC (Pseudomonas aeruginosa): > 50 µg/mL | MIC (Staphylococcus aureus): 6.25 µg/mL (≈ 10.9 µM) | MIC [2]: 12.5 µg/mL (≈ 21.8 µM) | MIC (Candida parapsilosis): > 50 µg/mL | IC50 (Plasmodium falciparum [3]): 201 nM | MIC (Aspergillus fumigatus): 12.5 µg/mL (≈ 21.8 µM) | MIC (Klebsiella pneumoniae): 12.5 µg/mL (≈ 21.8 µM) | MIC (Escherichia coli): 6.25 µg/mL (≈ 10.9 µM) | IC50 (Plasmodium falciparum [4]): 43.4 nM

COC(=O)/C(C)=C/c1ccc(Oc2ccccc2N/C(=N/c2cccc(Cl)c2)NCCCNc2ccnc3cc(Cl)ccc23)cc1
selectivity ratio [1]: 368 | MIC (Sporothrix schenckii): 50 µg/mL (≈ 76.4 µM) | MIC (Candida albicans): 50 µg/mL (≈ 76.4 µM) | MIC (Cryptococcus neoformans): > 50 µg/mL | MIC (Pseudomonas aeruginosa): > 50 µg/mL | MIC (Staphylococcus aureus): 3.12 µg/mL (≈ 4.77 µM) | MIC [2]: 50 µg/mL (≈ 76.4 µM) | MIC (Candida parapsilosis): > 50 µg/mL | IC50 (Plasmodium falciparum [3]): 292 nM | MIC (Aspergillus fumigatus): > 50 µg/mL | MIC (Klebsiella pneumoniae): 3.12 µg/mL (≈ 4.77 µM) | MIC (Escherichia coli): 6.25 µg/mL (≈ 9.55 µM) | IC50 (Plasmodium falciparum [4]): 20.3 nM

COC(=O)/C(C)=C/c1ccc(Oc2ccc(N/C(=N/c3cccc(Cl)c3)NCCCNc3ccnc4cc(Cl)ccc34)cc2)cc1
selectivity ratio [1]: 21.9 | MIC (Sporothrix schenckii): 50 µg/mL (≈ 76.4 µM) | MIC (Candida albicans): > 50 µg/mL | MIC (Cryptococcus neoformans): > 50 µg/mL | MIC (Pseudomonas aeruginosa): > 50 µg/mL | MIC (Staphylococcus aureus): 6.25 µg/mL (≈ 9.55 µM) | MIC [2]: 50 µg/mL (≈ 76.4 µM) | MIC (Candida parapsilosis): 50 µg/mL (≈ 76.4 µM) | IC50 (Plasmodium falciparum [3]): 71.4 nM | MIC (Aspergillus fumigatus): > 50 µg/mL | MIC (Klebsiella pneumoniae): 50 µg/mL (≈ 76.4 µM) | MIC (Escherichia coli): 6.25 µg/mL (≈ 9.55 µM) | IC50 (Plasmodium falciparum [4]): 78.2 nM
